The values below come from patent US11524966B1 (Valo Early Discovery, Inc., priority 2017, dated 2022).

For this test, the target named is T1, USP28 (USP28-5(1-1077)-TEV-6*His; LifeSensors) (Homo sapiens, UniProt Q96RU2).
T1 construct: construct USP28 (USP28-5(1-1077)-TEV-6*His; LifeSensors); TEV cleavage site (C); 6xHis (C); purchased LifeSensors
T1 sequence (Q96RU2 1-1077): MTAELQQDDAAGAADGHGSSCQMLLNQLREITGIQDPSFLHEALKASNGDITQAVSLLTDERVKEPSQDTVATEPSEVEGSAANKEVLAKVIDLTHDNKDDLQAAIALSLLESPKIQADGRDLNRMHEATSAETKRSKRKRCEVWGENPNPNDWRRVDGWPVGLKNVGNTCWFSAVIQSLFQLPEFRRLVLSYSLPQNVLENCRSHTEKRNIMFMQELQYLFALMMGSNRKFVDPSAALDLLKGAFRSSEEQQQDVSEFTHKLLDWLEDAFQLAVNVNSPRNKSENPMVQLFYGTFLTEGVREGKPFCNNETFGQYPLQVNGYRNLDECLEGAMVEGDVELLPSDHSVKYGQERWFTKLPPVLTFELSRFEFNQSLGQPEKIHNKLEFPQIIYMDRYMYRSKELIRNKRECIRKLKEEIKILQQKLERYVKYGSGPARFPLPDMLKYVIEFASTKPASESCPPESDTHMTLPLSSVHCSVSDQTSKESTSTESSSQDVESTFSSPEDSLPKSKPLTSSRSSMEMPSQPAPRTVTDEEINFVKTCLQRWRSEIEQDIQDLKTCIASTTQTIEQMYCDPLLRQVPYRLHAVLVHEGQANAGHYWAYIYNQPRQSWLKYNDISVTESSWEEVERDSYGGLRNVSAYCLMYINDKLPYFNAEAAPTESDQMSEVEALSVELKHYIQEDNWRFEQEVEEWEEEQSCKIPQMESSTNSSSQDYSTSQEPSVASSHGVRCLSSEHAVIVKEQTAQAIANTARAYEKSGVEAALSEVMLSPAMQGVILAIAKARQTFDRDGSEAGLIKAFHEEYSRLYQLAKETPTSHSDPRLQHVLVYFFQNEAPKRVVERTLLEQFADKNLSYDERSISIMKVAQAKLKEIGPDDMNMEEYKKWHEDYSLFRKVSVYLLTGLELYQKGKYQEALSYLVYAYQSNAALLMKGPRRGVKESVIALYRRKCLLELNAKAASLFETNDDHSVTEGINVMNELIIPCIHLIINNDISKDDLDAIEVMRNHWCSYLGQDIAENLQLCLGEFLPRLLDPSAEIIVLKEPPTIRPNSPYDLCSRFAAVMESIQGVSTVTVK
The test can be described thus: Ubiquitin-Rhodamine 110 Assay for USP28 Activity, Example A-1(b). It counts as biochemical. As to conditions: Ubiquitin-Rhodamine 110 assay. In a few lines: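 Single-point screening used 10 μM compound with 90 min room-temperature incubation; follow-up dose-responses (25 μM top, 3-fold) used 75 pM USP28 1-1077 construct, 30 min compound preincubation, 25 nM Ub-Rh110, 20 min reaction, citric acid quench. Rh110 fluorescence normalised to no-enzyme and DMSO controls; IC50 from 4-parameter logistic fit.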

Regarding `Cc1cnc2c(N)c(C(=O)N[C@H]3CCc4cc(N5CCNC[C@@H](O)C5)ccc4C3)sc2n1` (single isomer, unassigned) [Example 7-4], the “USP28 A-1(b) IC50 range” value (Example A-1(b)) was “++ (0.2-2 μM)”.
Same read-out and setting: to `Cc1cnc2c(N)c(C(=O)N[C@@H]3CCc4cc(N5CCNC[C@@H](O)C5)ccc4C3)sc2n1` (single isomer, unassigned) [Example 7-5] belongs “++ (0.2-2 μM)”; to `Cc1cnc2c(N)c(C(=O)N[C@H]3CCc4cc(N5CCNC[C@H](O)C5)ccc4C3)sc2n1` (single isomer, unassigned) [Example 7-6], “++ (0.2-2 μM)”; to `Cc1cnc2c(N)c(C(=O)N[C@@H]3CCc4cc(N5CCNC[C@H](O)C5)ccc4C3)sc2n1` (single isomer, unassigned) [Example 7-7], “+ (>2 μM)”.
`Cc1ccc2c(N)c(C(=O)N[C@H]3CCc4cc(N5CCN[C@H](CO)C5)ccc4C3)sc2n1` (single isomer, unassigned) [Example 7-8]: the “USP28 A-1(b) IC50 range” value (Example A-1(b)) is listed as “+ (>2 μM)”.
Same read-out and setting: the result for `Cc1ccc2c(N)c(C(=O)N[C@H]3CCc4cc(N5CCN[C@@H](CO)C5)ccc4C3)sc2n1` (single isomer, unassigned) [Example 7-9] reads “+ (>2 μM)”.
As to `Cc1ccc2c(N)c(C(=O)N[C@@H]3CCc4cc(N5CCN[C@H](CO)C5)ccc4C3)sc2n1` (single isomer, unassigned) [Example 7-10], the “USP28 A-1(b) IC50 range” value (Example A-1(b)) was “++ (0.2-2 μM)”.
As to `Cc1ccc2c(N)c(C(=O)N[C@@H]3CCc4cc(N5CCN[C@@H](CO)C5)ccc4C3)sc2n1` (single isomer, unassigned) [Example 7-11], under “Example A-1(b)”, the “USP28 A-1(b) IC50 range” value is reported as “++ (0.2-2 μM)”.
Consider `Cc1ccc2c(N)c(C(=O)N[C@H]3COc4cc(O[C@@H]5COC6(CNC6)C5)ccc4C3)sc2n1` (single isomer, unassigned) [Example 9-1], for which the “USP28 A-1(b) IC50 range” value (Example A-1(b)) was “+++ (0.05-0.2 μM)”.
The same measure, in the same setting: the result for `Cc1ccc2c(N)c(C(=O)N[C@H]3COc4cc(O[C@H]5COC6(CNC6)C5)ccc4C3)sc2n1` (single isomer, unassigned) [Example 9-2] reads “+++ (0.05-0.2 μM)”; that for `Cc1nc2sc(C(=O)N[C@H]3CCc4cc(N5CC6CCC(C5)N6)ccc4C3)c(N)c2cc1F` (single isomer, unassigned) [Example 11-3], “++ (0.2-2 μM)”.
Same read-out and setting: the result for `Cc1nc2sc(C(=O)N[C@@H]3CCc4cc(N5CC6CCC(C5)N6)ccc4C3)c(N)c2cc1F` (single isomer, unassigned) [Example 11-4] reads “+++ (0.05-0.2 μM)”; that for `COc1ccc2c(N)c(C(=O)N[C@H]3CCc4cc(N5CC6CCC(C5)N6)ccc4C3)sc2n1` (single isomer, unassigned) [Example 11-5], “++ (0.2-2 μM)”.
On to `COc1ccc2c(N)c(C(=O)N[C@@H]3CCc4cc(N5CC6CCC(C5)N6)ccc4C3)sc2n1` (single isomer, unassigned) [Example 11-6], for which the “USP28 A-1(b) IC50 range” value (Example A-1(b)) is “+ (>2 μM)”.
Still for that read-out and setting: the result for `Cc1cnc2c(N)c(C(=O)N[C@H]3CCc4cc(N5CC6CCC(C5)N6)ccc4C3)sc2n1` (single isomer, unassigned) [Example 11-7] reads “++ (0.2-2 μM)”; that for `Cc1cnc2c(N)c(C(=O)N[C@@H]3CCc4cc(N5CC6CCC(C5)N6)ccc4C3)sc2n1` (single isomer, unassigned) [Example 11-8], “+ (>2 μM)”; that for `CCn1ccc2cc(C(=O)N[C@H]3CCc4cc(N5CC6CCC(C5)N6)ccc4C3)cnc21` (single isomer, unassigned) [Example 11-9], “+ (>2 μM)”.
`CCn1ccc2cc(C(=O)N[C@@H]3CCc4cc(N5CC6CCC(C5)N6)ccc4C3)cnc21` (single isomer, unassigned) [Example 11-10]: the “USP28 A-1(b) IC50 range” value (Example A-1(b)) is “++ (0.2-2 μM)”.
Same read-out and setting: to `Cc1ccc2c(N)c(C(=O)N[C@H]3CCc4cc(N5CCNCC5)cc(F)c4C3)sc2n1` (single isomer, unassigned) [Example 11-11] belongs “+ (>2 μM)”; to `Cc1ccc2c(N)c(C(=O)N[C@@H]3CCc4cc(N5CCNCC5)cc(F)c4C3)sc2n1` (single isomer, unassigned) [Example 11-12], “++ (0.2-2 μM)”.
Turning to `Cc1cnc2c(N)c(C(=O)N[C@H]3CCc4cc(N5CC6CCC(C5)N6)cc(F)c4C3)sc2n1` (single isomer, unassigned) [Example 11-13], the “USP28 A-1(b) IC50 range” value (Example A-1(b)) is given as “+ (>2 μM)”.
On the same count and under the same terms, the result for `Cc1cnc2c(N)c(C(=O)N[C@@H]3CCc4cc(N5CC6CCC(C5)N6)cc(F)c4C3)sc2n1` (single isomer, unassigned) [Example 11-14] reads “+++ (0.05-0.2 μM)”.
On the same count and under the same terms, the result for `Cc1ccc2c(N)c(C(=O)N[C@@H]3COc4cc(N5CCNCC5)ccc4[C@@H]3C)sc2n1` (single isomer, unassigned) [Example 11-18] reads “+ (>2 μM)”; that for `CCn1ccc2cc(C(=O)N[C@@H]3CCc4cc(N5CC6CCC(C5)N6)ccc4C3)nnc21` (single isomer, unassigned) [Example 11-23], “+ (>2 μM)”; that for `CCn1ccc2cc(C(=O)N[C@H]3CCc4cc(N5CC6CCC(C5)N6)ccc4C3)nnc21` (single isomer, unassigned) [Example 11-24], “+ (>2 μM)”.
For the compound `Cc1ccc2c(N)c(C(=O)N[C@H]3CCc4cc(N5C6CNCC5C6)ccc4C3)sc2n1` (single isomer, unassigned) [Example 11-35], the “USP28 A-1(b) IC50 range” value (format Example A-1(b)) is “++ (0.2-2 μM)”.
The same measure, in the same setting: to `Cc1ccc2c(N)c(C(=O)N[C@@H]3CCc4cc(N5C6CNCC5C6)ccc4C3)sc2n1` (single isomer, unassigned) [Example 11-36] belongs “++ (0.2-2 μM)”; to `Cc1nc2sc(C(=O)N[C@H]3CCc4cc(N5CC6CCC(C5)N6)ccc4C3)c(N)c2s1` (single isomer, unassigned) [Example 12-1], “+ (>2 μM)”.
The same measure, in the same setting: the result for `Cc1ccc2c(N)c(C(=O)N[C@H]3COc4c(F)c(N5CC6CCC(C5)N6)cc(F)c4C3)sc2n1` (single isomer, unassigned) [Example 13-1] reads “++++ (0.001-0.05 μM)”; that for `Cc1ccc2c(N)c(C(=O)N[C@@H]3COc4c(F)c(N5CC6CCC(C5)N6)cc(F)c4C3)sc2n1` (single isomer, unassigned) [Example 13-2], “+ (>2 μM)”; that for `Cc1ccc2c(N)c(C(=O)N[C@@H]3COc4cc(N5CCNCC5)c(Cl)cc4C3)sc2n1` (single isomer, unassigned) [Example 13-6], “+++ (0.05-0.2 μM)”.
The same measure, in the same setting: to `Cc1ccc2c(N)c(C(=O)N[C@@H]3CCc4cc(N5CCNCC5)cnc4C3)sc2n1` (single isomer, unassigned) [Example 15-1] belongs “+ (>2 μM)”; to `Cc1ccc2c(N)c(C(=O)N[C@H]3CCc4cc(N5CCNCC5)cnc4C3)sc2n1` (single isomer, unassigned) [Example 15-2], “+ (>2 μM)”; to `Cc1ccc2c(N)c(C(=O)N[C@@H]3CCc4c(ccc(N5CC6CCC(C5)N6)c4F)C3)sc2n1` (single isomer, unassigned) [Example 21-1], “++ (0.2-2 μM)”.
For `Cc1ccc2c(N)c(C(=O)N[C@H]3CCc4c(ccc(N5CC6CCC(C5)N6)c4F)C3)sc2n1` (single isomer, unassigned) [Example 21-2], under “format Example A-1(b)”, the “USP28 A-1(b) IC50 range” value is “++ (0.2-2 μM)”.
Turning to `Cc1ccc2c(N)c(C(=O)N[C@@H]3CCc4cc(N5CC6CCC(C5)N6)c(F)cc4C3)sc2n1` (single isomer, unassigned) [Example 21-3], the “USP28 A-1(b) IC50 range” value (format Example A-1(b)) is listed as “++++ (0.001-0.05 μM)”.
Same read-out and setting: the result for `Cc1ccc2c(N)c(C(=O)N[C@H]3CCc4cc(N5CC6CCC(C5)N6)c(F)cc4C3)sc2n1` (single isomer, unassigned) [Example 21-4] reads “++ (0.2-2 μM)”; that for `Cc1ccc2c(N)c(C(=O)N[C@@H]3CCc4c(ccc(N5CCNCC5)c4F)C3)sc2n1` (single isomer, unassigned) [Example 21-5], “++++ (0.001-0.05 μM)”.
